According to patent US20250170102A1, “PHARMACEUTICAL COMPOSITION FOR INHIBITING FIBROSIS IN ORGANS” (NAGASAKI UNIVERSITY, priority 2022, published 2025):

What was measured:
[1] = test system: partial inferior vena cava ligation model mice (liver fibrosis); experiment: Partial inferior vena cava ligation model mice with low-dose losartan treatment; type: in vivo, C57BL/6 mice
Text: C57BL/6 mice (10-week-old, CLEA) were used. All animal experiments were approved by the Institutional Animal Care and Use Committee of Nagasaki University, and carried out in accordance with the institutional guidelines.
IVC was separated and a small tube (0.9 mm diameter) was placed along with the anterior surface of IVC ((B) in FIG. 1). The tube was tightly ligated together with the IVC ((C) in FIG. 1), and immediately after that, the tube was gently removed ((D) in FIG. 1). The abdomen was then closed with a suture of the peritoneal muscle/fascia followed by closure of the skin. Removing the 0.9 mm diameter tube from IVC ligation was expected to reduce the cross-sectional area of IVC by about 80% based on Simonetto et al.
After all procedures, mice were divided into Losartan group (n=6), IVCL group (n=6) and Sham group (n=6). Losartan group was given losartan (FUJIFILM Wako
Pure Chemical Corporation) in their drinking water at a final concentration of 2.3 mg/L, which providing an estimated daily dose of 0.5 mg/kg. IVCL group was given drinking water without addition of any drug. Treatment was continued until the cessation of the experiments. Sham group received a sham operation including all above steps with the exception of partial IVC ligation, and was given drinking water without addition of any drug.
Mice were euthanized 8 weeks postoperatively. Prior to sacrifice, the body weight was measured, and whole blood was collected from IVC and serum was separated. The levels of serum ALT and AST were measured. The suprahepatic IVC was then transected and the liver was perfused with PBS through the portal vein to remove circulating blood and fibrinogen. The spleen and liver were harvested and weighed, and the spleen/body and liver/body weight ratios were calculated. Liver tissues were fixed in 4% paraformaldehyde and embedded into paraffin block. Tissue sections of about 5 um thickness were used for histological analysis.
Liver tissue sections were deparaffinized and rehydrated. Masson's trichrome staining was performed using Trichrome Stain (Masson) Kit (Sigma-Aldrich) according to the manufacturer's instructions, and then observed under an optical microscope (IX71, Olympus).
Immunohistochemistry analysis on the liver tissues was performed to understand the relevant mechanism. Briefly, liver tissue sections were blocked with 10% bovine serum albumin, and then incubated with primary antibodies (Table 1) overnight at 4°° C., followed by incubation with secondary antibodies (Table 2) for 1 hour at room temperature in the dark. Sections were then mounted with medium containing DAPI. Apoptotic cells were detected by the usage of TUNEL staining kit (Abcam, #ab66108) according to the manufacturer's instructions. Briefly, sections were incubated with DNA labeling solution at 37° C. for 60 min, followed by the addition of PI/RNase A solution for 30 min. Immunofluorescences of stained liver tissues were detected using a fluorescence microscope (FV10i, Olympus). For each staining, at least 10 images were taken from randomly selected fields at 60× magnification, and the mean fluorescence intensity was measured by ImageJ software.
All the results were presented as mean±SD. Statistical significance was determined by one-way analysis of variance (ANOVA) followed by Turkey's test. P value <0.05 was accepted as significant. GraphPad Prism 8 software was used for statistical analysis.

[2] = test system: liver fibrosis caused by non-alcoholic steatohepatitis; details: rats; reported in non-patent literature 4; cited from earlier work
[3] = test system: acute lung injury caused by mechanical stimulation; details: reported in non-patent literature 3; cited from earlier work
[4] = test system: human hepatic stellate cells (HSCs); experiment: Ex vivo hydrostatic pressure loading test in human HSCs; type: cell-based; details: 10 nM losartan, 50 mmHg hydrostatic pressure 24 hours
Method: Primary human HSCs were purchased from ScienCell Research Laboratories. Cells were expanded by using stellate cell medium (ScienCell Research Laboratories) in a humidified incubator under 5% CO2 and 95% air at 37° C. The third passaged cells were used for the following experiments. A pneumatic pressurizing system (Strex. Inc) was used to induce hydrostatic pressure. Briefly, HSCs were seeded in 60-mm diameter culture dishes (5×10^4 cells/dish) and 4-well culture chamber slides (2×10^4 cells/well). Cells were incubated for 3 days to form about 70% confluent, and then half of the culture dishes and slides were randomly selected to be loaded by 50 mmHg hydrostatic pressure for 24 hours, with or without the addition of 10 nM losartan in medium. The inventors used 50 mmHg for experiments based on their preliminary experiments and a previous report (Yoshino et al., Commun Biol 3:152, 2020, Chen et al., Int J Biol Sci 15:2509-2521, 2019). As controls, non-hydrostatic pressure-loaded groups were provided for each of Losartan addition group and non-Losartan addition group. RT-qPCR was performed to evaluate the expression of RHOA, ROCK1, ROCK2, ACTA2, TGFB1, and COL1A1. Briefly, total RNA was isolated from HSCs using Quick-RNA MicoroPrep Kit, and 1.25 μg of RNA was reverse-transcribed using SuperScript VILO cDNA Synthesis Kit (Thermo Fisher Scientific). Quantitative PCR was carried out with SYBR Green real-time PCR Master Mix (Toyobo). The reactions were performed on a CFX96 real-time PCR System (BIO-RAD). The primer sequences are shown below. GAPDH was used for normalization. HSCs were fixed in 4% paraformaldehyde before blocked by 10% bovine serum albumin. After overnight incubation with the primary antibodies, cells were incubated with secondary antibodies for 1 hour at room temperature, and then mounted with medium containing DAPI. F-actin fibers were stained with TRITC-conjugated phalloidin in mounting medium. Immunofluorescences of stained cells were detected using a fluorescence microscope (FV10i, Olympus). For each staining, 10 images were taken from randomly selected fields at 60× magnification, and the mean fluorescence intensity was measured by ImageJ software. Statistical analysis was performed in the same manner as in Example 1.

[5] = test system: UUO-induced renal fibrosis model mice; experiment: Unilateral ureteral obstruction (UUO)-induced renal fibrosis model mice with losartan treatment; type: in vivo, C57BL/6 mice; details: for body weight: prior to UUO surgery and 1 and 2 weeks post-surgery, among all groups; for level of BUN in serum / level of CRE in serum / swelling of the left kidneys (hydronephrosis) / fibrosis area of kidney (Masson's trichrome staining): 2 weeks after UUO surgery; for level of BUN in serum / level of CRE in serum: compared to control group; for swelling of the left kidneys (hydronephrosis): versus control group; for fibrosis area of kidney (Masson's trichrome staining): versus left kidney of control group (UUO)
Text: C57BL/6 mice (8-week-old, CLEA) were used. The abdomen of mouse was opened under general anesthesia and the left ureter was ligated. The right ureter was not ligated and the right kidney served as a control. The surgical wound was then closed with a single-layer suture of the peritoneum, muscular layer and skin followed by closure of the surgical wound. UUO-induced renal fibrosis model is known to manifest the symptoms of hydronephrosis in the ligated kidney and then develop interstitial fibrosis caused by interstitial deposition of type IV collagen as well as apoptosis of tubular cells at day 3 post-UUO surgery. Post-UUO surgery mice were divided into three groups: low-dose losartan group (1 mg/kg, n=3), high-dose losartan group (3 mg/kg, n=3) and no losartan administration group (n=3). Low-dose losartan group was given losartan (FUJIFILM Wako Pure Chemical Corporation) in their drinking water at a final concentration of 4.6 mg/L, which providing an estimated daily dose of 1 mg/kg. High-dose losartan group was given losartan in their drinking water at a final concentration of 13.8 mg/L, which providing an estimated daily dose of 3 mg/kg. No losartan administration group was given drinking water without addition of losartan. Body weight was measured prior to UUO surgery and 1 and 2 weeks post-surgery. Mice were euthanized 2 weeks post-surgery. Prior to sacrifice, whole blood was collected from IVC and serum was separated. The levels of serum BUN and CRE were measured. The left and right kidneys were then harvested and photographed. Kidneys were fixed in 4% paraformaldehyde and embedded into paraffin block. Tissue sections of about 5 µm thickness were used for histological analysis. (3) Masson's trichrome staining and Hematoxylin and Eosin staining Tissue sections were deparaffinized and rehydrated. Masson's trichrome staining was performed using Trichrome Stain (Masson) Kit (Sigma-Aldrich) according to the manufacturer's instructions. Hematoxylin and Eosin (HE) staining was performed by a conventional method. Tissue specimens were observed under with an optical microscope (IX71, Olympus). Statistical analysis was performed in the same manner as in Example 1.

[6] = losartan 0.5 mg/kg/day in drinking water, 8 weeks after partial IVC ligation, among Sham, IVCL and Losartan groups
[7] = losartan 0.5 mg/kg/day in drinking water, 8 weeks after partial IVC ligation, compared with Sham group
[8] = losartan 0.5 mg/kg/day, 8 weeks, compared to IVCL group
[9] = losartan 0.5 mg/kg/day, 8 weeks, versus upregulation in IVCL group
[10] = compared to pressure-loaded group without losartan

CCCCc1nc(Cl)c(CO)n1Cc1ccc(-c2ccccc2-c2nn[nH]n2)cc1 [losartan]
level of ALT in serum [1, 6]: not significantly different | level of AST in serum [1, 6]: not significantly different | liver/body weight ratio [1, 7]: kept at comparable levels | spleen/body weight ratio [1, 7]: kept at comparable levels | expression of ROCK2 in liver tissue (immunostaining) ([1]; losartan 0.5 mg/kg/day, 8 weeks, all groups): not substantially changed | changes in the lobular architecture of liver [1, 8]: effectively alleviated | fibrotic area of liver tissue (Masson's trichrome staining) [1, 8]: significantly decreased | percentage of apoptotic cells in liver tissue (TUNEL staining) ([1]; losartan 0.5 mg/kg/day, 8 weeks, compared to Sham group): not significantly changed | expression of α-SMA in liver tissue (immunostaining signal intensity) ([1]; losartan 0.5 mg/kg/day, 8 weeks, in contrast to IVCL group): significantly reduced | expression of ROCK1 in liver tissue (immunostaining) [1, 9]: significantly reduced | expression of RhoA in liver tissue (immunostaining) [1, 9]: significantly reduced | expression of p-MLC2 in liver tissue (immunostaining) [1, 9]: effectively attenuated | liver fibrosis caused by non-alcoholic steatohepatitis [2]: mitigates | acute lung injury caused by mechanical stimulation [3]: effectively relieves | expression of ROCK2 (immunohistochemistry) [4]: no significant change | expression of ROCK2 gene (RT-qPCR) [4]: no significant change | formation of actin stress fibers (phalloidin staining for F-actin) [4]: effectively reduced | expression of ACTA2 gene (RT-qPCR) [4, 10]: significantly decreased | expression of AT1R gene (RT-qPCR) [4, 10]: significantly decreased | expression of AT1R in the cytoplasm (immunohistochemistry) [4, 10]: significantly decreased | expression of AT1R in the nucleus (immunohistochemistry) [4, 10]: significantly decreased | expression of COL1A1 gene (RT-qPCR) [4, 10]: significantly decreased | expression of ROCK1 (immunohistochemistry) [4, 10]: significantly decreased | expression of ROCK1 gene (RT-qPCR) [4, 10]: significantly decreased | expression of RhoA (immunohistochemistry) [4, 10]: significantly decreased | expression of RhoA gene (RT-qPCR) [4, 10]: significantly decreased | expression of TGF-β1 (immunohistochemistry) [4, 10]: significantly decreased | expression of TGFB1 gene (RT-qPCR) [4, 10]: significantly decreased | expression of p-MLC2 (immunohistochemistry) [4, 10]: significantly decreased | expression of type 1 collagen (immunohistochemistry) [4, 10]: significantly decreased | expression of α-SMA (immunohistochemistry) [4, 10]: significantly decreased | body weight ([5]; high-dose losartan 3 mg/kg/day in drinking water): No significant change | level of BUN in serum ([5]; high-dose losartan 3 mg/kg/day): significantly decreased | level of CRE in serum ([5]; high-dose losartan 3 mg/kg/day): significantly decreased | swelling of the left kidneys (hydronephrosis) ([5]; high-dose losartan 3 mg/kg/day): significantly inhibited | fibrosis area of kidney (Masson's trichrome staining) ([5]; high-dose losartan 3 mg/kg/day): significant decreasing | body weight ([5]; low-dose losartan 1 mg/kg/day in drinking water): No significant change | level of BUN in serum ([5]; low-dose losartan 1 mg/kg/day): significantly decreased | level of CRE in serum ([5]; low-dose losartan 1 mg/kg/day): significantly decreased | swelling of the left kidneys (hydronephrosis) ([5]; low-dose losartan 1 mg/kg/day): significantly inhibited | fibrosis area of kidney (Masson's trichrome staining) ([5]; low-dose losartan 1 mg/kg/day): significant decreasing
